Measured values as given in US6653529B2, “Use of the maize X112 mutant ahas 2 gene and imidazolinone herbicides for selection of transgenic monocots, maize, rice and wheat plants resistant to the imidazolinone herbicides” (BASF Aktiengesellschaft, priority 2000, dated 2003).

How the values were obtained:
[1] = tested on: immature embryos of Nortai plants (control); test: In vitro callus induction and growth from immature embryos on imazethapyr; format: cell-based, rice
Procedure: (§1) Immature embryos (12-14 days after fertilization) were dissected from transgenic homozygous T2 plants, identified as 26-4 in FIG. 1, or seed-grown Nortai plants and placed in N6 basal medium (Chiu et al., Sci. Sin 18:659-68, 1975) supplemented with 2 mg/l 2,4-D, 3% sucrose, 0.6% agarose (3SN6d2) amended with 0, 0.01, 0.033, 0.1, 0.3, 1.0, 3.3, 10, 25, or 50 μM imazethapyr (AC263,499). Five embryos were placed on one 10×60 mm Petri dish with two to three plates for each concentration as replications. Three weeks later, in vitro cellular response was monitored by measuring the fresh weight of callus derived from individual embryos.

[2] = tested on: immature embryos of transgenic homozygous T2 plants (26-4); test: as above; format: cell-based, rice
Procedure: as §1

transgenic rice Line 26 = test: Response of rice plants to various herbicides, seed set in greenhouse; format: in vivo; details: post-emergence, 1× g ai/ha: PURSUIT 62.5, CADRE 32, ARSENAL 24, RAPTOR 32, SCEPTER 125, ACCENT 35, CLASSIC 5, AC322,140 20, LONDAX 68
Excerpt: (§2) A total of 9 herbicides, 5 imidazolinones, two rice herbicides and ACCENT® (nicosulfuron) and CLASSIC® (clorimuron-ethyl) were applied in this study. Materials and methods were basically the same as described above, except that instead of 6″ pots, flats with 18 (3″×3″ per cell) cells were used, and 10-12 seeds were planted to one 3″×3″ cell. Ten plants were maintained in one cell in the post-emergence application. Each herbicide was sprayed at 4 different rates, 1, 2, 4, and 6×, as either pre or post-emergence applications with three replications per treatment. The name and amount of herbicide applied in this experiment and information relevant to their commercial applications are listed in Table 3. For simplicity and convenience, the lowest concentration used is referred as 1× rate, 2, 4 and 6× rates can be calculated as multiples of 1×.
(§3) To monitor plant response to various herbicides, data on fresh weight was collected. For pre-emergence applications, all plants from one cell were harvested 32 days after spraying (36-day old plants) and weighed. Twenty-nine days after herbicide application, 5 plants (44-day old plants) from each cell in the post-emergence application, were cut and weighed individually. Mean fresh weight for each treatment was calculated over three replications. The remaining 5 plants were grown in the greenhouse to maturity at which time, panicles of 3 plants were collected, and number of filled seeds and number of total kernels were counted to determine percentage of seed set.

transgenic rice Line 29 = test: as above; format: in vivo; details: post-emergence, 1× g ai/ha: PURSUIT 62.5, CADRE 32, ARSENAL 24, RAPTOR 32, SCEPTER 125, ACCENT 35, CLASSIC 5, AC322,140 20, LONDAX 68
Excerpt: as §2, §3

[3] = tested on: untransformed Nt rice plants; test: as above; format: in vivo; details: post-emergence, 1× g ai/ha: PURSUIT 62.5, CADRE 32, ARSENAL 24, RAPTOR 32, SCEPTER 125, ACCENT 35, CLASSIC 5, AC322,140 20, LONDAX 68
Excerpt: as §2, §3

[4] = tested on: AHAS (acetohydroxyacid synthase) in extracts of Nortai, Line 26 and Line 29; test: In vitro AHAS activity assay; format: biochemical, rice; details: a significant portion of the enzyme activity; compared with normal enzyme from Nortai; FIG. 2
Procedure: Previously published procedures were used for the extraction and in vitro assay for AHAS activity (Singh et al. 1988). Lower portions of the shoots were used as the source of plant tissue for the assay. The desalted crude extracts were used for the in vitro enzyme assays. Acetolactate produced by the enzyme was converted to acetoin, which was measured by the Westerfield assay system.
In vitro AHAS assays were performed to understand the basis of herbicide tolerance in the transgenic plants. Previously published procedure was used for the extraction and in vitro assay for AHAS activity (Singh et al. 1988). The lower portions of the shoots were used as the source of plant tissue for the assay. The desalted crude extracts were used for the in vitro enzyme assays. Acetolactate produced by the enzyme was converted to acetoin, which was measured by the Westerfield assay system (Westerfield 1945). The specific activity of AHAS was about 30% higher in Line 26 (67 nmoles/mg protein/h) and Line 29 (64 nmoles/mg protein/h) compared to the activity in Nortai (Nt) (50 nmoles/mg protein/h).

[5] = tested on: non-transformed Ciccio and Colosseo wheat plants; test: Greenhouse spray test of wheat with RAPTOR imazamox; format: in vivo
Excerpt: Sow seed to 3×5-cell flats at about 10 seed per cell. Grow the plants for about two weeks. On the day of spraying, water plants well and let excess water drip out. Spray plants on a belt-sprayer with the imidazolinone herbicides at desired rates. […] Resume regular water schedule three days after spraying. Closely observe the plants for the next two to four weeks. Symptoms of herbicide injury will be visible two weeks after spraying and susceptible plants will die four to six weeks later. We usually measure plant height and score the plant morphology with a 0 to 10 rating with 0 for dead plants and 10 for healthy plants with no or minimum injury.
We also analyzed T2 progeny plants from one of the best lines of 0407-1-10. T2 seeds were planted at 10 seeds per pot and two pots per line were sprayed at 0, 10, 20, 30, 40 and 50 g/ha RAPTOR® imazamox. Most plants did show an increase in resistance over non-transformed control (FIG. 6B).

CCc1cnc(C2=NC(C)(C(C)C)C(=O)N2)c(C(=O)O)c1 (stereo not drawn) [PURSUIT ®, imazethapyr]
growth (reduced to) on imazethapyr ([1]; 0.03 μM): less than 50%
concentration at which callus induction was totally inhibited ([1]; 3 weeks): 0.1 µM
concentration up to which callus induction and growth were normal ([2]; transgenic embryos): up to 1 μM
concentration with no callus induction ([2]; transgenic embryos): 10 µM
reduction in growth ([2]; transgenic embryos, 3.3 μM): about 50%
increase in resistance to imazethapyr in vitro ([2]; transgenic vs untransformed, immature embryos (also suspension cells / cell lines)): 100 fold
% seed-set (transgenic rice Line 26; 1× rate): 91%
No. filled seeds/3 panicles (transgenic rice Line 26; 1× rate): 143
Total No. of kernels/3 panicles (transgenic rice Line 26; 1× rate): 157
% seed-set (transgenic rice Line 26; 2× rate): 86%
No. filled seeds/3 panicles (transgenic rice Line 26; 2× rate): 133
Total No. of kernels/3 panicles (transgenic rice Line 26; 2× rate): 155
% seed-set (transgenic rice Line 26; 4× rate): 89%
No. filled seeds/3 panicles (transgenic rice Line 26; 4× rate): 152
Total No. of kernels/3 panicles (transgenic rice Line 26; 4× rate): 172
% seed-set (transgenic rice Line 26; 6× rate): 77%
No. filled seeds/3 panicles (transgenic rice Line 26; 6× rate): 107
Total No. of kernels/3 panicles (transgenic rice Line 26; 6× rate): 138
% seed-set (transgenic rice Line 29; 1× rate): 85%
No. filled seeds/3 panicles (transgenic rice Line 29; 1× rate): 125
Total No. of kernels/3 panicles (transgenic rice Line 29; 1× rate): 146
% seed-set (transgenic rice Line 29; 2× rate): 88%
No. filled seeds/3 panicles (transgenic rice Line 29; 2× rate): 136
Total No. of kernels/3 panicles (transgenic rice Line 29; 2× rate): 155
% seed-set (transgenic rice Line 29; 4× rate): 88%
No. filled seeds/3 panicles (transgenic rice Line 29; 4× rate): 138
Total No. of kernels/3 panicles (transgenic rice Line 29; 4× rate): 156
% seed-set (transgenic rice Line 29; 6× rate): 87%
No. filled seeds/3 panicles (transgenic rice Line 29; 6× rate): 141
Total No. of kernels/3 panicles (transgenic rice Line 29; 6× rate): 160
% seed-set ([3]; 1× rate): 35%
No. filled seeds/3 panicles ([3]; 1× rate): 38
Total No. of kernels/3 panicles ([3]; 1× rate): 47
% seed-set ([3]; 2× rate): 0%
No. filled seeds/3 panicles ([3]; 2× rate): 0
Total No. of kernels/3 panicles ([3]; 2× rate): 0
% seed-set ([3]; 4× rate): 10%
No. filled seeds/3 panicles ([3]; 4× rate): 19
Total No. of kernels/3 panicles ([3]; 4× rate): 21
% seed-set ([3]; 6× rate): 0%
No. filled seeds/3 panicles ([3]; 6× rate): 0
Total No. of kernels/3 panicles ([3]; 6× rate): 0
inhibition of AHAS activity from tolerant Line 26 and Line 29 [4]: insensitive to inhibition

COCc1cnc(C2=NC(C)(C(C)C)C(=O)N2)c(C(=O)O)c1 (stereo not drawn) [RAPTOR ®, imazamox]
plant heights of Ciccio and Colosseo reduced, less than those of transformed plants ([5]; 10 g/ha): 50%
fate of non-transformed Ciccio ([5]; 50 g/ha): caused death
% seed-set (transgenic rice Line 26; 1× rate): 87%
No. filled seeds/3 panicles (transgenic rice Line 26; 1× rate): 156
Total No. of kernels/3 panicles (transgenic rice Line 26; 1× rate): 180
% seed-set (transgenic rice Line 26; 2× rate): 89%
No. filled seeds/3 panicles (transgenic rice Line 26; 2× rate): 172
Total No. of kernels/3 panicles (transgenic rice Line 26; 2× rate): 193
% seed-set (transgenic rice Line 26; 4× rate): 91%
No. filled seeds/3 panicles (transgenic rice Line 26; 4× rate): 166
Total No. of kernels/3 panicles (transgenic rice Line 26; 4× rate): 183
% seed-set (transgenic rice Line 26; 6× rate): 77%
No. filled seeds/3 panicles (transgenic rice Line 26; 6× rate): 136
Total No. of kernels/3 panicles (transgenic rice Line 26; 6× rate): 167
% seed-set (transgenic rice Line 29; 1× rate): 89%
No. filled seeds/3 panicles (transgenic rice Line 29; 1× rate): 161
Total No. of kernels/3 panicles (transgenic rice Line 29; 1× rate): 180
% seed-set (transgenic rice Line 29; 2× rate): 80%
No. filled seeds/3 panicles (transgenic rice Line 29; 2× rate): 137
Total No. of kernels/3 panicles (transgenic rice Line 29; 2× rate): 171
% seed-set (transgenic rice Line 29; 4× rate): 91%
No. filled seeds/3 panicles (transgenic rice Line 29; 4× rate): 152
Total No. of kernels/3 panicles (transgenic rice Line 29; 4× rate): 167
% seed-set (transgenic rice Line 29; 6× rate): 80%
No. filled seeds/3 panicles (transgenic rice Line 29; 6× rate): 125
Total No. of kernels/3 panicles (transgenic rice Line 29; 6× rate): 149
% seed-set ([3]; 1× rate): 0%
No. filled seeds/3 panicles ([3]; 1× rate): 0
Total No. of kernels/3 panicles ([3]; 1× rate): 0
% seed-set ([3]; 2× rate): 0%
No. filled seeds/3 panicles ([3]; 2× rate): 0
Total No. of kernels/3 panicles ([3]; 2× rate): 0
% seed-set ([3]; 4× rate): 0%
No. filled seeds/3 panicles ([3]; 4× rate): 0
Total No. of kernels/3 panicles ([3]; 4× rate): 0
% seed-set ([3]; 6× rate): 0%
No. filled seeds/3 panicles ([3]; 6× rate): 0
Total No. of kernels/3 panicles ([3]; 6× rate): 0
